Experiment [1] deals with vaccinia virus VH1-related (VHR) phosphatase (Homo sapiens, UniProt P51452). The class given is biochemical. The following applies: 4PL fit, 37 °C, 5 mM substrate, Fig. 3a (quadrant 3).
The test system of experiment [2] is Vascular endothelial protein tyrosine phosphatase (VE-PTP). The experiment can be described thus: Phosphatase inhibition assay. The class given is biochemical. The following applies: 4PL fit, 37 °C, 1 mM substrate, Fig. 3b (quadrant 2).

Structures are written as SMILES.

Sequence of vaccinia virus VH1-related (VHR) phosphatase (P51452 whole entry): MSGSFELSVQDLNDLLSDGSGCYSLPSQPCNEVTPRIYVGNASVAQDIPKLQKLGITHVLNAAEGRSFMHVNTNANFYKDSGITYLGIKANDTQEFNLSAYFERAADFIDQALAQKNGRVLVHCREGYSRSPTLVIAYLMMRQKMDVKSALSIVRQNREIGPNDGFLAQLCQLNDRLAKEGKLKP

Take `CC(C)(c1ccc(NS(=O)(=O)C(F)(F)F)cc1)c1ccc(C(C)(C)c2ccc(NS(=O)(=O)C(F)(F)F)cc2)cc1` [compound 281, bis(4-trifluoromethylsulfonamidophenyl)-1,4-diisopropylbenzene]: in experiment [1], the Hill coefficient worked out at 2.7. In the case of `O=C(O[C@@H]1Cc2c(O)cc(O)cc2O[C@@H]1c1cc(O)c(O)c(O)c1)c1cc(O)c(O)c(O)c1` [compound 172, Epigallocatechin-3-monogallate], the Hill coefficient in experiment [2] turned out to be 0.55.

The values are drawn from paper PMC2698315 (Journal of Chemical Biology, 2008).
